Species on record: Rattus norvegicus
Experiment: Open TG-GATES - Regimen: Single
Type: toxicity, organism-based, Sprague-Dawley
Design: regimen Single, gender Male, age 6 weeks
Details: in vivo, po, 0 mg/kg, route gavage, dose level Control; for APTT / Bas / Eos / Fbg / Hb / Ht / Lym / MCH / MCHC / MCV / Mono / Neu / PT / Plat / RBC / Ret / WBC: tissue Blood; for KIDNEY_L / KIDNEY_R / KIDNEY_TOTAL: tissue Kidney; for LIVER: tissue Liver; for ALP / ALT / AST / BUN / CRE / DBIL / GLC / K / LDH / Na / PL / RALB / TBIL / TC / TG / TP / gamma-GTP: tissue Plasma

CC(CCc1ccccc1)NCC(O)c1ccc(O)c(C(N)=O)c1 (stereo not given) [LABETALOL]
TERMINAL_BW (3 h): 214.7 g | APTT (3 h): 16 s | Bas (3 h): 0% | Eos (3 h): 1% | Fbg (3 h): 279.6 mg/dL | Hb (3 h): 13 g/dL | Ht (3 h): 38.7% | Lym (3 h): 80.6% | MCH (3 h): 21.4 pg | MCHC (3 h): 33.6% | MCV (3 h): 63.6 fL | Mono (3 h): 3.4% | Neu (3 h): 14.2% | PT (3 h): 13.1 s | Plat (3 h): 108.8 x10_4/uL | RBC (3 h): 608.8 x10_4/ul | Ret (3 h): 8% | WBC (3 h): 90.7 x10_2/uL | KIDNEY_L (3 h): 0.9 g | KIDNEY_R (3 h): 0.9 g | KIDNEY_TOTAL (3 h): 1.8 g | LIVER (3 h): 9.4 g | ALP (3 h): 1611 IU/L | ALT (3 h): 45.8 IU/L | AST (3 h): 77.4 IU/L | BUN (3 h): 11.8 mg/dL | CRE (3 h): 0.2 mg/dL | DBIL (3 h): 0.014 mg/dL | GLC (3 h): 184 mg/dL | K (3 h): 3.8 meq/L | LDH (3 h): 70.6 IU/L | Na (3 h): 142.6 meq/L | PL (3 h): 141.8 mg/dL | RALB (3 h): 2.6 g/dL | TBIL (3 h): 0.048 mg/dL | TC (3 h): 83 mg/dL | TG (3 h): 68.4 mg/dL | TP (3 h): 5.5 g/dL | gamma-GTP (3 h): 1.6 IU/L | TERMINAL_BW (6 h): 213.8 g | APTT (6 h): 16.4 s | Bas (6 h): 0% | Eos (6 h): 1% | Fbg (6 h): 327.6 mg/dL | Hb (6 h): 13.3 g/dL | Ht (6 h): 39% | Lym (6 h): 72.8% | MCH (6 h): 21.8 pg | MCHC (6 h): 34% | MCV (6 h): 63.9 fL | Mono (6 h): 3.4% | Neu (6 h): 22.2% | PT (6 h): 12.9 s | Plat (6 h): 104.3 x10_4/uL | RBC (6 h): 609.8 x10_4/ul | Ret (6 h): 8.3% | WBC (6 h): 100.8 x10_2/uL | KIDNEY_L (6 h): 0.9 g | KIDNEY_R (6 h): 1 g | KIDNEY_TOTAL (6 h): 1.9 g | LIVER (6 h): 8.9 g | ALP (6 h): 1394.4 IU/L | ALT (6 h): 39.8 IU/L | AST (6 h): 73.2 IU/L | BUN (6 h): 8.6 mg/dL | CRE (6 h): 0.2 mg/dL | DBIL (6 h): 0.004 mg/dL | GLC (6 h): 170.2 mg/dL | K (6 h): 4 meq/L | LDH (6 h): 52.4 IU/L | Na (6 h): 142.6 meq/L | PL (6 h): 136.4 mg/dL | RALB (6 h): 2.5 g/dL | TBIL (6 h): 0.038 mg/dL | TC (6 h): 86.2 mg/dL | TG (6 h): 41.8 mg/dL | TP (6 h): 5.4 g/dL | gamma-GTP (6 h): 1.2 IU/L | TERMINAL_BW (9 h): 217.8 g | APTT (9 h): 16.8 s | Bas (9 h): 0% | Eos (9 h): 0.8% | Fbg (9 h): 288 mg/dL | Hb (9 h): 13.4 g/dL | Ht (9 h): 39.5% | Lym (9 h): 80.6% | MCH (9 h): 21.7 pg | MCHC (9 h): 33.9% | MCV (9 h): 64 fL | Mono (9 h): 2.4% | Neu (9 h): 15.4% | PT (9 h): 13.5 s | RBC (9 h): 617.2 x10_4/ul | Ret (9 h): 7.6% | WBC (9 h): 96.4 x10_2/uL | KIDNEY_L (9 h): 0.9 g | KIDNEY_R (9 h): 0.9 g | KIDNEY_TOTAL (9 h): 1.8 g | LIVER (9 h): 8.8 g | ALP (9 h): 1362.6 IU/L | ALT (9 h): 39.4 IU/L | AST (9 h): 72.8 IU/L | BUN (9 h): 10.2 mg/dL | CRE (9 h): 0.2 mg/dL | DBIL (9 h): 0.01 mg/dL | GLC (9 h): 175.6 mg/dL | K (9 h): 3.8 meq/L | LDH (9 h): 49.8 IU/L | Na (9 h): 143 meq/L | PL (9 h): 133 mg/dL | RALB (9 h): 2.6 g/dL | TBIL (9 h): 0.046 mg/dL | TC (9 h): 75.8 mg/dL | TG (9 h): 67.6 mg/dL | TP (9 h): 5.5 g/dL | gamma-GTP (9 h): 1.2 IU/L | TERMINAL_BW (24 h): 220.3 g | APTT (24 h): 16.3 s | Bas (24 h): 0% | Eos (24 h): 1% | Fbg (24 h): 294.8 mg/dL | Hb (24 h): 13 g/dL | Ht (24 h): 38% | Lym (24 h): 78.2% | MCH (24 h): 21.5 pg | MCHC (24 h): 34.1% | MCV (24 h): 63.1 fL | Mono (24 h): 2.6% | Neu (24 h): 17.4% | PT (24 h): 12.8 s | Plat (24 h): 119 x10_4/uL | RBC (24 h): 603.2 x10_4/ul | Ret (24 h): 7.9% | WBC (24 h): 78.3 x10_2/uL | KIDNEY_L (24 h): 0.9 g | KIDNEY_R (24 h): 0.9 g | KIDNEY_TOTAL (24 h): 1.9 g | LIVER (24 h): 10.2 g | ALP (24 h): 1641.6 IU/L | ALT (24 h): 49.8 IU/L | AST (24 h): 75.6 IU/L | BUN (24 h): 15.8 mg/dL | CRE (24 h): 0.2 mg/dL | DBIL (24 h): 0.012 mg/dL | GLC (24 h): 182.2 mg/dL | K (24 h): 4.4 meq/L | LDH (24 h): 59 IU/L | Na (24 h): 141.8 meq/L | PL (24 h): 150.8 mg/dL | RALB (24 h): 2.7 g/dL | TBIL (24 h): 0.03 mg/dL | TC (24 h): 88.4 mg/dL | TG (24 h): 82 mg/dL | TP (24 h): 5.7 g/dL | gamma-GTP (24 h): 1.2 IU/L

Source: ChEMBL document CHEMBL3885861, “Open TG-GATES”
